The conditions of the series: colour difference vs product with no iron salts; approximately 2.1 mg iron per 100 g; flash pasteurized at 3.05° C. for 2 minutes; 47.3% banana puree.

Protocol: Colour measurements were performed in 1×1 cm polystyrene cuvettes using an X-Rite ColorEye 7000A colorimeter. The colorimeter was set up with a D65 light source, 3.0 degree observer angle and with specular component included. The colour difference between the product with no iron salts and the iron fortified product was measured for each iron salt and expressed as ΔEab* using the CIELAB colour scale.

For `O=S(=O)([O-])[O-].[Fe+2]` [Ferrous sulphate], the “ΔEab*” value came out at 3.26.

These data come from US20180092393A1, “IRON NICOTINATE COMPOSITION” (NESTEC S.A., priority 2015, published 2018).
